Assay results from US20240173241A1, “Multistable Photochromic Pigments For Intradermal Use” (THE REGENTS OF THE UNIVERSITY OF COLORADO, a body corporate, priority 2021, published 2024).

Experiment: UV activation of P-type photochromic dye in PMMA matrix in natural sunlight (ΔE*ab vs. time)
Assay type: physicochemical
Excerpt: FIG. 5 is a set of six graphs (A-F) comparing measured and modeled data for the UV activation of P-type photochromic dyes with and without UV and color filters. The UV-activated color change is quantified by ΔE*ab in CIELAB chromaticity space for measured data, while it is expressed in terms of the relative concentration. [C], of the photoactivated species in the modeled data. (A) ΔE*ab vs. time for a P-type photochromic dye (1,2-Bis(2-methyl-5-phenyl-3-thienyl)-perfluorocyclopentenediarylethene, DAE-0001) embedded in a PMMA matrix in natural sunlight in Boulder, Colorado. The time to 85% complete activation, […], is 67 s. (B) ΔE*ab vs. time for DAE-0001 with 50% UV filter ([…] =142 s). […]
where [C] is the concentration of the photoactivated species (photostationary state), [S] is the concentration of the ground-state species, εS,λ is the molar absorptivity of the ground-state species at wavelength λ, εC,λ is the molar absorptivity of the photoactivated species at wavelength λ, φs is the quantum yield of the cycloreversion or deactivation, φC is the quantum yield of photoactivation, Iλ is the irradiance at wavelength λ, and l is the path length. […] The simulations agree well with measured data of its UV activation in natural sunlight in Boulder, Colorado, as shown in FIG. 5A and FIG. 5B. […]

Cc1sc(-c2ccccc2)cc1C1=C(c2cc(-c3ccccc3)sc2C)C(F)(F)C(F)(F)C1(F)F [DAE-0001, 1,2-Bis(2-methyl-5-phenyl-3-thienyl)-perfluorocyclopentenediarylethene]
time to 85% complete activation (embedded in a PMMA matrix, natural sunlight in Boulder, Colorado, no filter (FIG. 5A)): 67 s
time to 85% complete activation (natural sunlight, with 50% UV filter (FIG. 5B)): 142 s
